Values after ≈ are worked out from the molar mass of the structure shown. Counter-ions that a name gives are not always drawn. Like-named read-outs stand apart in the source and are kept apart here.
Columns and labels:
[1] = system: P. aeruginosa PAO1; assay: Intrinsic MIC assay (CLSI broth microdilution); assay type: cell-based; details: Pseudomonas aeruginosa, read-out: Antibiotic Activity Against P. aeruginosa Intrinsic MIC
Description: As used herein, the term “minimum inhibitory concentration (MIC)” refers to the lowest concentration of a compound (e.g., an antibiotic) that prevents visible growth of a bacterium. Assays for measuring the MIC of a compound are known in the art, for example, as described herein. As used herein, the term “intrinsic MIC” refers the MIC of a compound (e.g., an antibiotic) for the particular bacterial species that has not been pre-exposed to the compound. Intrinsic MIC Assays MIC assays were conducted in accordance with Clinical and Laboratory Standards Institute (CLSI) guidelines for broth microdilution. A 96-well plate containing cation-adjusted Mueller-Hinton (CAMH broth with 2-fold serial dilution of compounds was inoculated with log-phase bacterial at 5×10^5 CFU/mL. The final volume in each well was 100 μL. Each compound was tested in duplicate. The microtiter plates were incubated in an aerobic environment for 18 hours at 37° C. Then the bacterial growth was tested by reading the plate with a VersaMax plate reader (Molecular Devices, Inc.) at 600 nm. The MIC was defined as the lowest compound concentration that inhibited 90% of bacteria growth. The intrinsic MIC of the experimental EPIs was tested with the method described. […] The following Gram-negative bacterial strains were included in these assays: Pseudomonas aeruginosa PAO1

[2] = system: P. aeruginosa PAO1; assay: MIC assay in the presence of a bacterial efflux pump inhibitor (EPI); assay type: cell-based, Pseudomonas aeruginosa; details: P. aeruginosa PAO1; for Enhancement (intrinsic MIC versus MIC with EPI): fold enhancement with 12.5 ug/ml EPI; for Antibiotic Activity Against P. aeruginosa MIC with EPI: with 12.5 ug/ml of EPI (2S,4R)-4-(ammoniomethyl)-2-((6-(4-fluorophenyl)-1H-indole-2-carboxamido)methyl)pyrrolidin-1-ium
Protocol: The ability of a compound to produce an antibiotic effect can be determined using a method as described in Example 42. […] MIC assays were conducted in accordance with Clinical and Laboratory Standards Institute (CLSI) guidelines for broth microdilution. A 96-well plate containing cation-adjusted Mueller-Hinton (CAMH broth with 2-fold serial dilution of compounds was inoculated with log-phase bacterial at 5×10^5 CFU/mL. The final volume in each well was 100 μL. Each compound was tested in duplicate. The microtiter plates were incubated in an aerobic environment for 18 hours at 37° C. Then the bacterial growth was tested by reading the plate with a VersaMax plate reader (Molecular Devices, Inc.) at 600 nm. The MIC was defined as the lowest compound concentration that inhibited 90% of bacteria growth. MIC Assays in the Presence of a Bacterial Efflux Inhibitor The EPI assay for the purposes of these studies represents a MIC assay in which the MIC of the antibiotic against the bacteria is tested in the presence of an experimental efflux pump inhibitor (EPI). The highest concentration of the EPI present in the assay typically is ½ of the intrinsic MIC of the compound. […] Using serial dilutions of the EPI, its enhancement of antibiotic activity was then evaluated. The relative EPI activity was decided by comparing the MIC of the antibiotic in the presence of the EPI compound with the intrinsic MIC of the antibiotic alone. For comparative purposes, we generally used EPIs at concentration of 12.5 and 6.25 μg/ml against varying concentration of our test antibiotic.

[3] = system: E. coli 25922; assay: Intrinsic MIC assay (CLSI broth microdilution); assay type: cell-based, Escherichia coli; details: read-out: Antibiotic Activity Against E. coli Intrinsic MIC
Description: As used herein, the term “minimum inhibitory concentration (MIC)” refers to the lowest concentration of a compound (e.g., an antibiotic) that prevents visible growth of a bacterium. Assays for measuring the MIC of a compound are known in the art, for example, as described herein. As used herein, the term “intrinsic MIC” refers the MIC of a compound (e.g., an antibiotic) for the particular bacterial species that has not been pre-exposed to the compound. Intrinsic MIC Assays MIC assays were conducted in accordance with Clinical and Laboratory Standards Institute (CLSI) guidelines for broth microdilution. A 96-well plate containing cation-adjusted Mueller-Hinton (CAMH broth with 2-fold serial dilution of compounds was inoculated with log-phase bacterial at 5×10^5 CFU/mL. The final volume in each well was 100 μL. Each compound was tested in duplicate. The microtiter plates were incubated in an aerobic environment for 18 hours at 37° C. Then the bacterial growth was tested by reading the plate with a VersaMax plate reader (Molecular Devices, Inc.) at 600 nm. The MIC was defined as the lowest compound concentration that inhibited 90% of bacteria growth. The intrinsic MIC of the experimental EPIs was tested with the method described. […] The following Gram-negative bacterial strains were included in these assays: Escherichia coli ATCC 25922

[4] = 18 h, P. aeruginosa PAO1, compound alone, without EPI, MIC = lowest concentration inhibiting 90% of growth
[5] = Escherichia coli, 18 h, E. coli 25922, compound alone, without EPI

SMILES	MIC [1, 4] [µg/mL]	Enhancement (intrinsic MIC versus MIC with EPI) [2]	Antibiotic Activity Against P. aeruginosa MIC with EPI [2] [µg/mL]	MIC [3, 5] [µg/mL]	MIC ([1]; PAO1, 18 h) [µg/mL]	MIC ([3]; Escherichia coli, 25922, 18 h) [µg/mL]
NC1CCCc2c1[nH]c1cccc(Br)c21 (stereo not shown) [Example 5b, 5-Bromo-2,3,4,9-tetrahydro-1H-carbazol-1-amine]	128 (≈ 483 µM)	(64x)	2	16 (≈ 60.3 µM)		
NC1CCCc2c1[nH]c1cc(Br)ccc21 (stereo not shown) [Example 5a, 7-Bromo-2,3,4,9-tetrahydro-1H-carbazol-1-amine]	64 (≈ 241 µM)	(64x)	1	32 (≈ 121 µM)		
COc1ccc2[nH]c3c(c2c1)CCCC3N.Cl (stereo not shown) [Example 18, 6-Methoxy-2,3,4,9-tetrahydro-1H-carbazol-1-amine Hydrogen Chloride Salt]	> 256	(>8x)	32	> 256		
NC1CC(c2ccccc2)Cc2c1[nH]c1ccc(Br)cc21 (stereo not shown) [Example 35, 6-Bromo-3-phenyl-2,3,4,9-tetrahydro-1H-carbazol-1-amine]	> 256	(>32x)	8	8 (≈ 23.4 µM)		
NC1CCCc2c1[nH]c1ccc(C(F)(F)F)cc21 (stereo not shown) [Example 14, 6-(Trifluoromethyl)-2,3,4,9-tetrahydro-1H-carbazol-1-amine]	64 (≈ 252 µM)	(32x)	2	64 (≈ 252 µM)		
CNCC1Cc2c([nH]c3ccc(Br)cc23)C(N)C1 (stereo not shown) [Example 41, 6-Bromo-3-((methylamino)methyl)-2,3,4,9-tetrahydro-1H-carbazol-1-amine Hydrogen Chloride Salt]	128	(4x)	64	256		
NC1CCCc2c1[nH]c1ccc(Br)cc21 (stereo not shown) [Example 1, 6-Bromo-2,3,4,9-tetrahydro-1H-carbazol-1-amine]	32 (≈ 121 µM)	(64x)	0.5	8 (≈ 30.2 µM)		
NC1CCCc2c1[nH]c1ccc(F)cc21 (stereo not shown) [Example 12, 6-Fluoro-2,3,4,9-tetrahydro-1H-carbazol-1-amine]	128 (≈ 627 µM)	(64x)	2	64 (≈ 313 µM)		
CC(C)(C)OC(=O)NC1CCCc2c1[nH]c1cc(Br)ccc21 (stereo not shown) [Example 11, Tert-Butyl (7-bromo-2,3,4,9-tetrahydro-1H-carbazol-1-yl)carbamate]	> 256	(4x)	>64	> 256		
CC(=O)NC1CCCc2c1[nH]c1ccc(Br)cc21 (stereo not shown) [Example 8, N-(6-Bromo-2,3,4,9-tetrahydro-1H-carbazol-1-yl)acetamide]	> 256	(4x)	>64	> 256		
NCCCNC1CCCc2c1[nH]c1ccc(Br)cc21 (stereo not shown) [Example 40, N^1-(6-Bromo-2,3,4,9-tetrahydro-1H-carbazol-1-yl)propane-1,3-diamine]	32 (≈ 99.3 µM)			32 (≈ 99.3 µM)		
CN(C)C(=O)C1Cc2c([nH]c3ccc(Br)cc23)C(N)C1 (stereo not shown) [Example 33, 1-Amino-6-bromo-N,N-dimethyl-2,3,4,9-tetrahydro-1H-carbazole-3-carboxamide]	> 256	(>2x)	128	128 (≈ 381 µM)		
CC(C)(C)OC(=O)NC1CCCc2c1[nH]c1ccc(Br)cc21 (stereo not shown) [Example 6, Tert-Butyl (6-bromo-2,3,4,9-tetrahydro-1H-carbazol-1-yl)carbamate]	> 256	(4x)	>64	> 256		
NC1CC(C(=O)O)Cc2c1[nH]c1ccc(Br)cc21 (stereo not shown) [Example 28, 1-Amino-6-bromo-2,3,4,9-tetrahydro-1H-carb azole-3-carboxylic Acid]	> 256	(>1x)	256	> 256		
Cl.NC(=O)C1Cc2c([nH]c3ccc(Br)cc23)C(N)C1 (stereo not shown) [Example 34, 1-Amino-6-bromo-2,3,4,9-tetrahydro-1H-carbazole-3-carboxamide Hydrogen Chloride Salt]	256		256	128		
N#Cc1ccc2[nH]c3c(c2c1)CCCC3N (stereo not shown) [Example 16, 1-Amino-2,3,4,9-tetrahydro-1H-carb azole-6-carbonitrile]	> 256	(>8x)	32	256 (≈ 1210 µM)		
CC(C)C1Cc2c([nH]c3ccc(Br)cc23)C(N)C1 (stereo not shown) [Example 30, 6-Bromo-3-isopropyl-2,3,4,9-tetrahydro-1H-carbazol-1-amine]	64 (≈ 208 µM)	(8x)	8	4 (≈ 13 µM)		
CC(C)(C)C1Cc2c([nH]c3ccc(Br)cc23)C(N)C1 (stereo not shown) [Example 36, 6-Bromo-3-(tert-butyl)-2,3,4,9-tetrahydro-1H-carbazol-1-amine]	> 256	(>32x)	8	8 (≈ 24.9 µM)		
CC1(C)CCC(N)c2[nH]c3ccc(Br)cc3c21 (stereo not shown) [Example 24, 6-Bromo-4,4-dimethyl-2,3,4,9-tetrahydro-1H-carbazol-1-amine]		(4x)	16		64 (≈ 218 µM)	16 (≈ 54.6 µM)
NC1CCCc2c1[nH]c1ccc(OC(F)(F)F)cc21 (stereo not shown) [Example 15, 6-(Trifluoromethoxy)-2,3,4,9-tetrahydro-1H-carbazol-1-amine]	128 (≈ 474 µM)	(8x)	16	64 (≈ 237 µM)		
CC1CCc2c([nH]c3ccc(Br)cc23)C1N (stereo not shown) [Example 23, 6-Bromo-2-methyl-2,3,4,9-tetrahydro-1H-carbazol-1-amine]	256 (≈ 917 µM)	(16x)	16	16 (≈ 57.3 µM)		
CCOC(=O)C1Cc2c([nH]c3ccc(Br)cc23)C(N)C1 (stereo not shown) [Example 27, Ethyl 1-amino-6-bromo-2,3,4,9-tetrahydro-1H-carbazole-3-carboxylate]	> 256	(>8x)	32	16 (≈ 47.4 µM)		
